Test results taken from patent US20070225253A1, “Use of a trioxopyrimidine for the treatment and prevention of bronchial inflammatory diseases” (priority 2004, published 2007).

Assays:
Human MMP-3 = Human MMP-3 (Homo sapiens, UniProt P08254); assay: MMP enzymatic activity, modified fluorescence assay (DNP-substrate); type: biochemical
Procedure: IC50 values are measured by an in vitro assay for MMP enzymatic activity. […] This assay is based on the determination of MMP enzymatic activity on a dinitrophenol substrate and fluorescence measurement of the substrate after cleaving by MMPs.
(§1) Human MMP-1, MMP-2, MMP-3, MMP-9 and MMP-14 are commercially available (e.g. Calbiochem). The pro-enzymes were activated with 1 mM APMA (incubation for 30 min at 37° C.) immediately before testing. Activated enzyme is diluted to 100 ng/ml in incubation buffer (50 mM Tris, 100 mM NaCl, 10 mM CaCl2, pH 7.6). The compounds were dissolved in 100% DMSO.
(§2) The test tube contains 970 μl incubation buffer, 10 μl inhibitor solution and 10 μl enzyme solution. The reaction was started by adding the 10 μl substrate solution.

Human MMP-14 = Human MMP-14 (Homo sapiens, UniProt P50281); assay: as above; type: biochemical
Procedure: (§3) IC50 values are measured by an in vitro assay for MMP enzymatic activity. Such an assay is described by Stack, M. S., and Gray, R. D., J. Biol. Chem. 264 (1989) 4277-4281. This assay is based on the determination of MMP enzymatic activity on a dinitrophenol substrate and fluorescence measurement of the substrate after cleaving by MMPs.
as §1, with “Inhibitors were tested in a modified fluorescence-assay as described by Stack, M. S., and Gray, R. D., J. Biol. Chem. 264 (1989) 4277-4281. Human” for “Human”, “DMSO. […] DNP-substrate (Bachem M1855, 255 μM) was dissolved in incubation buffer.” for “DMSO.”
as §2
(§4) Kinetics of activity were determined using excitation at 280 nm and emission at 346 nm measured on a FluoroMax™ (Spex Industries Inc., Edison, N.J., USA) over 120 sec. DMSO has been used as control instead of inhibitor solution.
(§5) IC50's are defined as the concentration of inhibitor that gives a signal that is 50% of the positive enzyme control.

Human MMP-9 = Human MMP-9 (Homo sapiens, UniProt P14780); assay: as above; type: biochemical
Human MMP-9, sequence (P14780 107-707 limits assumed): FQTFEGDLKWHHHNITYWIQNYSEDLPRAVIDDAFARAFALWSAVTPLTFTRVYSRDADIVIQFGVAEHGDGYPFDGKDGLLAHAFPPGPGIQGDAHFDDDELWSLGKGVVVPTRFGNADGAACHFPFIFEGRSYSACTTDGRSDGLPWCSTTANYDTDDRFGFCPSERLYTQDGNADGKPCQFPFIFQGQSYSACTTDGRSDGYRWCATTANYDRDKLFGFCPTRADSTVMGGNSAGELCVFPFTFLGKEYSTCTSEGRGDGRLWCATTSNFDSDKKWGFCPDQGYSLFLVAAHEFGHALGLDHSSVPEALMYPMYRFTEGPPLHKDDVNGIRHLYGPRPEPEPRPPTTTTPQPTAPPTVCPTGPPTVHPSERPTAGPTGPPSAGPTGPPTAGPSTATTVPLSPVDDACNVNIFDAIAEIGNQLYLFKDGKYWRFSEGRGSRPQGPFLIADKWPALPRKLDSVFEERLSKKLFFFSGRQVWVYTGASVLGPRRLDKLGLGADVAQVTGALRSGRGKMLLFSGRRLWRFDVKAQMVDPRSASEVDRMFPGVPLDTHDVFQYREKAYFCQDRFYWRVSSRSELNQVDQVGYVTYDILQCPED
Procedure: as §3
as §1, with “Inhibitors were tested in a modified fluorescence-assay as described by Stack, M. S., and Gray, R. D., J. Biol. Chem. 264 (1989) 4277-4281. Human” for “Human”, “DMSO. […] DNP-substrate (Bachem M1855, 255 μM) was dissolved in incubation buffer.” for “DMSO.”
as §2, §4, §5

[1] = Pharmacokinetics after intravenous administration to sheep; type: in vivo; settings: I.V. solution, 5 mg/kg
Procedure: The Compound I/HP-β-CD intravenous solution was obtained by dissolving CompoundI (10 mg/ml) in a solution containing HP-β-CD (200 mM), L-lysine (20 mM) and water for injection. The osmolality (about 325 mOsmol/kg) and the pH (about 8.2) values of this solution are compatible with an intravenous injection. The solution was sterilized by passing through a sterile 0.20 μm cellulose acetate filter under aseptic conditions.
Six healthy sheep (2 males and 4 females) ranging from 45 to 82 kg of body weight were used as experimental animals. During the test, the animals were fed and watered ad libitum.
The experimental study, which was realized following the scheme of Table 3, included a randomized two-way cross-over design for oral administration followed by an intravenous administration. A wash-out period of 3 weeks was allowed between each administration.
For the intravenous dosage form, all six sheep received 5 mg of Compound I/kg of body weight. The solution was administered through the left jugular vein and blood samples were taken from the right jugular vein before and 5, 10, 15, 20, 30, 45 min, 1, 1.5, 2, 3, 4, 5, 6, 8, 10, 12, 24, 28, 32, 48, 72, 96, 120, 144, 168 h after starting the intravenous administration.
All blood samples were centrifuged and the serum were stored at −80° C. until assayed.
A fully automated method was developed for the LC determination of this compound in serum. Sample clean-up was performed by on-line coupling of a pre-column packed with restricted access material (RAM), namely LiChrospher RP-8ADS (alkyl diol silica), to the analytical column by means of the column-switching technique. The ADS sorbents belong to the group of internal surface reversed-phase supports and have been applied successfully for the clean-up of biological samples prior to LC analysis (Yu, Z., and Westerlund, D., Chromatographia 44 (1997) 589-594; Hubert, Ph., et al., S. T. P. Pharma Pratiques 9 (1999) 160-180; Souverain, S., et al., Journal of Chromatography B 801 (2004) 141-156). The operating conditions are described in a previous paper (Chiap, P., et al., Journal of Chromatography B 817 (2005), 109-117). The method was fully validated according to a novel approach based on accuracy profiles taking into account the total measurement error (Hubert, P., et al., Analytica Chimica Acta 391 (1999) 135-148; Hubert, Ph., et al., S. T. P. Pharma Pratiques 13 (2003) 27-64; Hubert, Ph., et al., J Pharm Biomed. Anal. 36 (2004) 579-586.
For the bioanalytical study, the dosing range of the method had to be increased until 50 μg/ml due to high concentrations to be determined. A partial revalidation was performed and good results were obtained with respect to response function, trueness, precision, accuracy and linearity.
For the intravenous administration study, the pharmacokinetic parameters were determined for each animal using a linear two-compartment model with first-order distribution and elimination (Boroujerdi, M., Pharmacokinetics, Principles and Applications. McGrow-Hill Companies, USA, 2002). The areas under the curve values (AUCs0-168) were calculated by linear trapezoidal rule during the sampling period. The AUC extrapolated until infinite values (AUCs0-∞), the total body clearance values (Clt), the biologic half-life (T1/2β) and the overall volume of distribution (Vdt) were calculated using conventional equations associated with compartmental analysis (Boroujerdi, M., Pharmacokinetics, Principles and Applications, McGrow-Hill Companies, USA, 2002).

Human MMP-3, sequence (P08254 100-477): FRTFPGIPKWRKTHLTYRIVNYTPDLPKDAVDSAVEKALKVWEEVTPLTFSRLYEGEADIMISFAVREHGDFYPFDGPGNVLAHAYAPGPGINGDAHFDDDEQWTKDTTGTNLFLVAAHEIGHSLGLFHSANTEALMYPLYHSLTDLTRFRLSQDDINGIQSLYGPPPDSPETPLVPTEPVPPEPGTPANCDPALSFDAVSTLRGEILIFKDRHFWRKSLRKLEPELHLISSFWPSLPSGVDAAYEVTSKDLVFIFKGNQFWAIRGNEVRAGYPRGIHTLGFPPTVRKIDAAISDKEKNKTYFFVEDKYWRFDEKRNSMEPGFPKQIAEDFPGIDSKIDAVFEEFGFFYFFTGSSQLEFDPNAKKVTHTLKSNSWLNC

O=C1NC(=O)C(c2ccc(-c3ccccc3)cc2)(N2CCN(c3ccc([N+](=O)[O-])cc3)CC2)C(=O)N1 [Compound I, 5-Biphenyl-4-yl-5-[4-(4-nitro-phenyl)-piperazin-1-yl]pyrimidine-2,4,6-trione]
IC50 (Human MMP-3): 3.5 µM
IC50 (Human MMP-14): 1 nM
IC50 (Human MMP-9): 260 nM
distribution phase ([1]; sheep): about 30 minutes
AUC(0-inf) ([1]; both sexes, serum, iv, sheep n = 6, mean ± S.D.): 859 ± 212 µg·h/mL
AUC(0-t) ([1]; both sexes, serum, iv, sheep n = 6, mean ± S.D., read-out: AUC0-168 h): 858 ± 212 µg·h/mL
clearance ([1]; both sexes, sheep, serum, iv, sheep n = 6, mean ± S.D., read-out: Clt (total body clearance) (converted)): ~5.97 mL/min
half-life ([1]; both sexes, sheep, serum, iv, sheep n = 6, mean ± S.D., read-out: T1/2β (biologic half-life) (converted)): ~930 min
Vd ([1]; both sexes, sheep, serum, iv, sheep n = 6, mean ± S.D., read-out: Vdt (overall volume of distribution)): ~8 L
